The target in experiment [1] is T1, Bone morphogenetic protein receptor type-2 (Homo sapiens) (UniProt Q13873).
T1 sequence (whole entry): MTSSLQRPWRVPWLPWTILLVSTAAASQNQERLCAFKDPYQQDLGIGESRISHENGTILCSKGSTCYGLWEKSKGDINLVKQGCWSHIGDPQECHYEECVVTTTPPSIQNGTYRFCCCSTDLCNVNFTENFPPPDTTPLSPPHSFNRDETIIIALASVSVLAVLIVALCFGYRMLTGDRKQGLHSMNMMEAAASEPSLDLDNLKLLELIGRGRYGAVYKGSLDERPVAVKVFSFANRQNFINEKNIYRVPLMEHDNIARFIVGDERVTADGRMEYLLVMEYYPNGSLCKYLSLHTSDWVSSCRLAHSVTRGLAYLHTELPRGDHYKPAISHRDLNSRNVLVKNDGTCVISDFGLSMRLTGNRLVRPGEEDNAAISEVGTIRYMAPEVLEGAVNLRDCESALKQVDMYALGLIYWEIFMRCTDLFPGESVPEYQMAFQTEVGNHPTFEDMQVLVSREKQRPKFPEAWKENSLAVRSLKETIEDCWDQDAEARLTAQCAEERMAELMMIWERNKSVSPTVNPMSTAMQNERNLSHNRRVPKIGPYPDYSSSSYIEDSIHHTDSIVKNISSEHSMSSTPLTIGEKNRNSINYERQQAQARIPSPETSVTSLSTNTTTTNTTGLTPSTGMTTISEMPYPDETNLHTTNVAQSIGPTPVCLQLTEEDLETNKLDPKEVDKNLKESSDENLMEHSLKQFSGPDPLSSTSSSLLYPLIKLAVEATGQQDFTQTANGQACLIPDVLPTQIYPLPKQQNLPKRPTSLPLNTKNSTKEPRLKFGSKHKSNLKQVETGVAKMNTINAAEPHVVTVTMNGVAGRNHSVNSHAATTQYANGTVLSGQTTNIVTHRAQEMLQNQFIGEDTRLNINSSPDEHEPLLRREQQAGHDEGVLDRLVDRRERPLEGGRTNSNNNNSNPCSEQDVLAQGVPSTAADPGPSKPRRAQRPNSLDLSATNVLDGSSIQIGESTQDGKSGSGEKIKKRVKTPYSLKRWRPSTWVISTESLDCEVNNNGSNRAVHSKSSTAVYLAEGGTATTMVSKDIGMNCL
The settings on record: at 10 µM.

For experiment [2], the target named is Tyrosine-protein kinase FRK (Homo sapiens) (UniProt P42685). Nature of the experiment: Selectivity interaction (KinomeScan (DiscoverX)) EUB0000045b FRK.
Chain of Tyrosine-protein kinase FRK (Homo sapiens) (P42685 whole entry): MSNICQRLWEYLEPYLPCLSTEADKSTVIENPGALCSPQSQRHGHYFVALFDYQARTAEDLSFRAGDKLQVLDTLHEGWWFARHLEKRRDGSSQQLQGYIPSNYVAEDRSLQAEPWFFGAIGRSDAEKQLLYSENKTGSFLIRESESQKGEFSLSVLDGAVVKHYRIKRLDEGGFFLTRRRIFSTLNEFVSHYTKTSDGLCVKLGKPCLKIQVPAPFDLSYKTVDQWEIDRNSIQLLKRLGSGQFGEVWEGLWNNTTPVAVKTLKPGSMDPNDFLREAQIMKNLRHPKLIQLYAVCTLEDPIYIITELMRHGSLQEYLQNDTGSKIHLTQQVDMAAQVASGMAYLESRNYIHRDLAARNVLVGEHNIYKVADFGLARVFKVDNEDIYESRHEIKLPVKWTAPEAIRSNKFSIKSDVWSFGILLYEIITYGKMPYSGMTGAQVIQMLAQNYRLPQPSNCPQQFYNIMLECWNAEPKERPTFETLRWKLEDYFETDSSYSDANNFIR
The target in experiment [3] is T2, Cyclin-G-associated kinase (Homo sapiens) (UniProt O14976).
T2 sequence (whole entry): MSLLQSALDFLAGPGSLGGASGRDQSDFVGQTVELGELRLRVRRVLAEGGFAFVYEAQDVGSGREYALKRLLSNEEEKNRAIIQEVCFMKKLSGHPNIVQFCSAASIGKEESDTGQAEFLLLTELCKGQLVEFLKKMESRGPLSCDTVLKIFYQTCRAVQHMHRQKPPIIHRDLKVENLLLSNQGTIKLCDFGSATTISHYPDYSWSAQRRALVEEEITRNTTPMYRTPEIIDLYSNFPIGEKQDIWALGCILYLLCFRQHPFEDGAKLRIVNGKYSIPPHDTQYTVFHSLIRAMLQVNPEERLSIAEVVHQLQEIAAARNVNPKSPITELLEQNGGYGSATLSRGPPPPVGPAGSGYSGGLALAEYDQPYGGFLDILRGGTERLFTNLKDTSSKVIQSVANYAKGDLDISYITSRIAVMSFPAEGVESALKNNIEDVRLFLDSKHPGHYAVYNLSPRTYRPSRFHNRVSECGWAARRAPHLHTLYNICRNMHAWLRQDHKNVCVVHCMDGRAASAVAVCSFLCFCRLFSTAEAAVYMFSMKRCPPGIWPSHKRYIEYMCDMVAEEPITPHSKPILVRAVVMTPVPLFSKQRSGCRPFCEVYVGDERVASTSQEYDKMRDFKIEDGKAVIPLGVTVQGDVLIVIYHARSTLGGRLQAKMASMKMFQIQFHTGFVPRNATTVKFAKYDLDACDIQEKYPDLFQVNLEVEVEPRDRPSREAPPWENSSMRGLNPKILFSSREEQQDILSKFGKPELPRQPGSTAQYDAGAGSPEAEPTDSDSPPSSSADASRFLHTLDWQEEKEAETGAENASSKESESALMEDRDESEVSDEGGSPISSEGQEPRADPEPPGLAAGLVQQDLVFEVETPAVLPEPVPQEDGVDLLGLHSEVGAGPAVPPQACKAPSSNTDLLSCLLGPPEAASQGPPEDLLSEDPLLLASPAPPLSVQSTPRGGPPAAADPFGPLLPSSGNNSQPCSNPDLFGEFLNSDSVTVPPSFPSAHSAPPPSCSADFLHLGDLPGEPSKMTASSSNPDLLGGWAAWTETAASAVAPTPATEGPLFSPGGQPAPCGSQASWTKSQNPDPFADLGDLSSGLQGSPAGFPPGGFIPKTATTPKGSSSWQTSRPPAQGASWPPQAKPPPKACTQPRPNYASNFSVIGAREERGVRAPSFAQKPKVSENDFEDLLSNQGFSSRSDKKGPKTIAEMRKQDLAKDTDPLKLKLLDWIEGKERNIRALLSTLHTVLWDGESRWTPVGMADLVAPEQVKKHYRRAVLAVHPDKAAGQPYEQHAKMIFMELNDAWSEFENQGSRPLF
Put plainly: Selectivity interaction (KinomeScan (DiscoverX)) EUB0000229b GAK. The settings on record: at 10 µM.

Experiment [4] has as its target T3, Cytoplasmic tyrosine-protein kinase BMX (Homo sapiens) (UniProt P51813).
T3 sequence (whole entry): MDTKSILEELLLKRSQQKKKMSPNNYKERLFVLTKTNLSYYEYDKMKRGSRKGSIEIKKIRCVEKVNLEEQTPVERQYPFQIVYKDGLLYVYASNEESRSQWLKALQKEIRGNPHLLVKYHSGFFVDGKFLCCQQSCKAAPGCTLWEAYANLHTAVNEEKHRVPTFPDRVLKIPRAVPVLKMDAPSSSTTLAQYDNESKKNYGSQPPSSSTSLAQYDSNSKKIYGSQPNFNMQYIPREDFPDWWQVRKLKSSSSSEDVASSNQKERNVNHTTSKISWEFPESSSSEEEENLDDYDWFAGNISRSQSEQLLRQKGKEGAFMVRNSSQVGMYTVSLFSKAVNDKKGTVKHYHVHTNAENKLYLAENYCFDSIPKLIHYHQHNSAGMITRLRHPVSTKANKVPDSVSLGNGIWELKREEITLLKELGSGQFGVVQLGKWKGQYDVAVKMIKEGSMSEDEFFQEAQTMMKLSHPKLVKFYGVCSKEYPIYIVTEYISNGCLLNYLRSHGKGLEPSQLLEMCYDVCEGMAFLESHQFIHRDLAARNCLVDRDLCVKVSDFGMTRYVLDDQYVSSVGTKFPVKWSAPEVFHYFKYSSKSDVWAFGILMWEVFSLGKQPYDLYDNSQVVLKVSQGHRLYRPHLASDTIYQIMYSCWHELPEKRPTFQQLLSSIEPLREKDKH
Put plainly: Selectivity interaction (KinomeScan (DiscoverX)) EUB0000618a BMX. The settings on record: at 10 µM.

`Cc1cc([C@@H](C)Nc2ccccc2C(=O)O)c2nc(N3CCOCC3)cc(=O)n2c1` [AZD-6482] gave a % of control in experiment [1] of 69%.

For the compound `C=CC(=O)Nc1cc(-n2c(=O)ccc3cnc4ccc(-c5ccc(NS(C)(=O)=O)cc5)cc4c32)ccc1C`, the % of control amounted to 100% in experiment [2] (at 1 µM) and 98% in experiment [2] (at 10 µM).

`COc1cc(N(C)c2ccnc3ccc(C(F)(F)F)cc23)cc(OC)c1OC` registered a % binding in experiment [3] of 43%.

In experiment [4], `O[C@H]1CC[C@H](Nc2ncc3nc(Nc4c(F)cc(F)cc4F)n([C@H]4CCOC4)c3n2)CC1` gave a % of control of 100%.

The values above are taken from ChEMBL document CHEMBL5465560, “Selectivity Literature for EUbOPEN Chemogenomic Library” (2024).
